Reference: patent publication US6514997B2, “Antipicornaviral compounds and compositions, their pharmaceutical uses, and materials for their synthesis” (Agouron Pharmaceuticals, Inc., priority 1999, dated 2003)
Like-named read-outs stand apart in the source and are kept apart here.

Tests used:
[1] = biological target: T1, Recombinant rhinovirus 3C protease, serotype 14 (Human rhinovirus 14, UniProt P03303); test: Inhibition of rhinovirus 3C protease (FRET assay, kobs/[I]), serotype 14; type: biochemical; details: HRV-14; for kinact/KI: pH 7.6, read-out: kobs/[I] (3C protease inhibition activity)
T1 construct: Recombinant rhinovirus 3C proteases; made in house
T1 sequence (P03303 1538-1719): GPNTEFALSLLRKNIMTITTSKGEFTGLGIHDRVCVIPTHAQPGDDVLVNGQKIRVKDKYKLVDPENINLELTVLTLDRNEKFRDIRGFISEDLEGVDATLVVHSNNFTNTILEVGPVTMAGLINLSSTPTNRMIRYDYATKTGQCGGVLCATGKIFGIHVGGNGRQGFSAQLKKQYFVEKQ
Procedure: Inhibition of Rhinovirus 3C Protease:
Stock solutions (50 mM, in DMSO) of various compounds were prepared; dilutions were in the same solvent. Recombinant rhinovirus 3C proteases (see Birch et al., “Purification of recombinant human rhinovirus 14 3C protease expressed in Escherichia coli,” Protein Expr. Pur. (1995), vol. 6(5), 609-618) from serotypes 14, 16, and 2 were prepared by the following standard chromatographic procedures: (1) ion exchange using Q Sepharose Fast Flow from Pharmacia; (2) affinity chromatography using Affi-Gel Blue from Biorad; and (3) sizing using Sephadex G-100 from Pharmacia. Each assay sample contained 2% DMSO, 50 mM tris pH 7.6, 1 mM EDTA, a test compound at the indicated concentration, approximately 1 μM substrate, and 50-100 nM protease. The kobs/I values were obtained from reactions initiated by addition of enzyme rather than substrate. RVP activity was measured in the fluorescence resonance energy transfer assay. The substrate was (N-terminal) DABCYL-([…]-EDANS. In the uncleaved peptide, the EDANS fluorescence was quenched by the proximal DABCYL moiety. When the peptide was cleaved, the quenching was relieved, and activity was measured as an increase in fluorescence signal. The tabulated data in the column designated kobs/[I] were measured from progress curves in enzyme start experiments.

HRV-14 = test: Antirhinoviral H1-HeLa cell culture assay (XTT cell protection, EC50), HRV-14; type: cell-based, human rhinovirus (HRV) serotype-14 in H1-HeLa cells
Procedure: (§1) Antirhinoviral H1-HeLa Cell Culture Assay:
(§2) In this cell protection assay, the ability of compounds to protect cells against HRV infection was measured by the XTT dye reduction method, which is described in Weislow et al., J. Natl. Cancer Inst. […] H1-HeLa cells were infected with HRV-14 at a multiplicity of infection (m.o.i.) of 0.13 (virus particles/cell) or mock-infected with medium only. Infected or mock-infected cells were resuspended at 8×10^5 cells per mL, and incubated with appropriate concentrations of the compounds to be tested. Two days later, XTT/PMS was added to test plates and the amount of formazan produced was quantified spectrophotometrically at 450/650 nm. […] The therapeutic index (TI) was calculated by dividing the CC50 value by the EC50 value.
(§3) All strains of human rhinovirus (HRV) for use in this assay were purchased from American Type Culture Collection (ATCC), except for HRV serotype-14 (produced from the infectious cDNA clone constructed by Dr. Robert Rueckert, Institute for Molecular Virology, University of Wisconsin, Madison, Wis.). HRV stocks were propagated and viral assays were performed in H1-HeLa cells (ATCC). Cells were grown in minimal essential medium with 10% fetal bovine serum, available from Life Technologies (Gaithersburg, Md.).

[2] = test system: strains of human rhinovirus (HRV); test: Antirhinoviral H1-HeLa cell culture assay (XTT cell protection, EC50), other HRV strains; type: cell-based, human rhinovirus in H1-HeLa cells; details: read-out: EC50
Procedure: as §1
In this cell protection assay, the ability of compounds to protect cells against HRV infection was measured by the XTT dye reduction method, which is described in Weislow et al., J. Natl. Cancer Inst. (1989), vol. 81, 577-586. H1-HeLa cells were infected with HRV-14 at a multiplicity of infection (m.o.i.) of 0.13 (virus particles/cell) or mock-infected with medium only. Infected or mock-infected cells were resuspended at 8×10^5 cells per mL, and incubated with appropriate concentrations of the compounds to be tested. Two days later, XTT/PMS was added to test plates and the amount of formazan produced was quantified spectrophotometrically at 450/650 nm. […] The therapeutic index (TI) was calculated by dividing the CC50 value by the EC50 value.
as §3

H1-HeLa cells = test: Cytotoxicity (CC50) in mock-infected H1-HeLa cells, XTT dye reduction; type: cell-based, human
Procedure: as §2, §3
(§4) Coxsackievirus types A-21 (CAV-21) and B3 (CVB3) were purchased from American Type Culture Collection (ATCC, Rockville, Md.). Virus stocks were propagated and antiviral assays were performed in H1-HeLa cells (ATCC). Cells were grown in minimal essential medium with 10% fetal bovine serum (Life Technologies, Gaithersburg, Md.). The ability of the compounds of this invention to protect cells against either CAV-21 or CVB3 infection was measured by the XTT dye reduction method. This method is described in Weislow et al., J. Natl. Cancer Inst. […] H1-HeLa cells were infected with CAV-21 or CVB3 at a multiplicity of infection (m.o.i.) of 0.025 or 0.075, respectively, or mock-infected with medium only. H1-HeLa cells were plated at 4×10^4 cells per well in a 96-well plate and incubated with appropriate concentrations of the test compound. One day (CVB3) or two days (CAV-21) later, XTT/PMS was added to test plates and the amount of formazan produced was quantified spectrophotometrically at 450/650 nm. […] The therapeutic index (TI) was calculated by dividing the CC50 by the EC50.

[3] = as above; type: cell-based, human; details: human, H1-HeLa cells, mock-infected; line of HRV-14
Procedure: as §2, §3, §4

[4] = Rhinovirus B, HRV14, H1-HeLa, HRV-14, read-out: EC50

kinact/KI [1] [M⁻¹ s⁻¹]	EC50 (HRV-14; [4]) [nM]	SMILES	CC50 at 2 days [3] [nM]	further results
81000	14	CCOC(=O)/C=C/[C@H](CCC(N)=O)NC(=O)[C@H](Cc1ccc(F)cc1)n1cccc(NC(=O)OCc2ccccc2)c1=O [Compound 7, trans-(2′S,4S)-4-[2′-(3″-Benzyloxycarbonylamino-2″-oxo-2″H-pyridin-1″-yl)-3′-(4′″-fluorophenyl)propionylamino]-6-carbamoylhex-2-enoic Acid Ethyl Ester]	> 10000	–
193000	< 3.2	CCOC(=O)/C=C/[C@H](CCC(N)=O)NC(=O)[C@H](Cc1ccc(F)c(F)c1)n1cccc(NC(=O)OCc2ccccc2)c1=O [Compound 11, trans-(2′S,4S)-4-[2′-(3″-Benzyloxycarbonylamino-2″-oxo-2″H-pyridin-1″-yl)-3′-(3′″,4′″-difluorophenyl)propionylamino]-6-carbamoylhex-2-enoic Acid Ethyl Ester]	> 10000	–
6500	178	CCOC(=O)/C=C/[C@H](CCC(N)=O)NC(=O)[C@H](CC1CCCCC1)n1cccc(NC(=O)OCc2ccccc2)c1=O [Compound 15, trans-(2′S,4S)-4-[2′-(3″-Benzyloxycarbonylamino-2″-oxo-2″H-pyridin-1″-yl)-3′-cyclohexylpropionylamino]-6-carbamoyl-hex-2-enoic Acid Ethyl Ester]	> 10000	–
74000	325	O=C1OCC/C1=C\[C@H](C[C@@H]1CCNC1=O)NC(=O)[C@H](Cc1ccc(F)cc1)n1cccc(NC(=O)C2CCCC2)c1=O [Compound 16, trans-(2′″S,2′″S,3′″″S)-Cyclopentanecarboxylic acid(1-{2′-(4″-fluorophenyl)-1′-[2′-(2″″-oxo-dihydrofuran-3″″-ylidene)-1-(2′″″-oxopyrrolidin-3′″″-ylmethyl)ethylcarbamoyl]ethyl}-2-oxo-1,2-dihydropyridin-3-yl)amide]	> 10000	–
600000	15	Cc1cc(C(=O)Nc2cccn([C@@H](Cc3ccc(F)cc3)C(=O)N[C@H](/C=C3\CCOC3=O)C[C@@H]3CCNC3=O)c2=O)no1 [Compound 20, trans-(2″S,2″″S,3″″″S)-5-Methylisoxazole-3-carboxylic Acid (1′-{2″-(4′″-fluorophenyl)-1″-[2″″-(2′″″-oxodihydrofuran-3′″″-ylidene)-1″″-(2″″″oxopyrrolidin-3″″″-ylmethyl)ethylcarbamoyl]ethyl}-2′-oxo-1′,2′-dihydropyridin-3′-yl)amide]	> 10000	–

The remaining lines, values behind:

SMILES	kinact/KI [1] [M⁻¹ s⁻¹]	EC50 (HRV-14; [4]) [nM]	CC50 at 2 days [3] [nM]	further results
Cc1cc(C(=O)Nc2cccn(C(Cc3ccc(F)c(F)c3)C(=O)N[C@H](/C=C/C(=O)OCC(C)(C)C)C[C@@H]3CCNC3=O)c2=O)no1 (relative stereo) [Compound 47, trans-(2′S,3″″″S,4S)-4-[3′-(3″,4″-Difluorophenyl)-2′-(3′″-{[1″″-(5′″″-methylisoxazol-3′″″-yl)methanoyl]amino}-2″″-oxo-2″″H-pyridin-1″″-yl)propanoylamino]-5-(2″″″-oxopyrrolidin-3″″″-yl)pent-2-enoic Acid 2,2-Dimethylpropyl Ester]	–	–	–	kobs/[I] (3C protease inhibition activity) [1]: 1,400,000 M^−1s^−1; EC50 (HRV-14; HRV-14, read-out: EC50): 40 nM; EC50 ([2]; HRV-1A): 148 nM; EC50 ([2]; HRV-2): 133 nM; EC50 ([2]; HRV-3): 18 nM; EC50 ([2]; HRV-9): 121 nM; EC50 ([2]; HRV-10): 114 nM; EC50 ([2]; HRV-16): 49 nM; EC50 ([2]; HRV-25): 193 nM; EC50 ([2]; HRV-39): 168 nM; CC50 (H1-HeLa cells; line of HRV-1A): > 10000 nM; CC50 (H1-HeLa cells; line of HRV-2): > 10000 nM; CC50 (H1-HeLa cells; line of HRV-3): > 10000 nM; CC50 (H1-HeLa cells; line of HRV-9): > 10000 nM; CC50 (H1-HeLa cells; line of HRV-10): > 10000 nM; CC50 (H1-HeLa cells; line of HRV-14): > 10000 nM; CC50 (H1-HeLa cells; line of HRV-16): > 10000 nM; CC50 (H1-HeLa cells; line of HRV-25): > 10000 nM; CC50 (H1-HeLa cells; line of HRV-39): > 10000 nM
CCOC(=O)/C=C/[C@H](C[C@@H]1CCNC1=O)NC(=O)[C@H](Cc1ccccc1)n1ccc2cc[nH]c2c1=O [Compound 3]	2900	–	> 10000	EC50 (HRV-14; Rhinovirus B, HRV14, H1-HeLa): 1270 nM
CCOC(=O)/C=C/[C@H](CCC(N)=O)NC(=O)[C@H](Cc1ccccc1)n1cccc(NC(C)=O)c1=O [Compound 8, trans-(2′S,4S)-4-[2′-(3″-Acetylamino-2″-oxo-2″H-pyridin-1″-yl)-3′-phenypropionylamino]-6-carbamoylhex-2-enoic Acid Ethyl Ester]	7660	888	> 10000	–
CCOC(=O)/C=C/[C@H](CCC(N)=O)NC(=O)[C@H](Cc1ccccc1)n1cccc(NC(=O)C(C)(C)C)c1=O [Compound 9, trans-(2′S,4S)-6-Carbamoyl-4-{2′-[3″-(2′″,2′″-dimethylpropionylamino)-2″-oxo-2″H-pyridin-1″-yl]-3′-phenylpropionylamino}hex-2-enoic Acid Ethyl Ester]	5040	518	> 10000	–
CCOC(=O)/C=C/[C@H](CCC(N)=O)NC(=O)[C@H](Cc1ccccc1)n1ccc(C)c(NC(=O)OCc2ccccc2)c1=O [Compound 12, trans-(2′S,4S)-4-[2′-(3″-Benzyloxycarbonylamino-4″-methyl-2″-oxo-2″H-pyridin-1″-yl)-3′-phenylpropionylamino]-6-carbamoylhex-2-enoic Acid Ethyl Ester]	25800	75	> 10000	–
CCOC(=O)/C=C/[C@H](CCC(N)=O)NC(=O)Cn1cccc(NC(=O)OCc2ccccc2)c1=O [Compound 17, trans-(4S)-4-[2′-(3″-Benzyloxycarbonylamino-2″-oxo-2″H-pyridin-1″-yl)acetylamino]-6-carbamoylhex-2-enoic Acid Ethyl Ester]	348	> 10000	> 10000	–
CCOC(=O)/C=C/[C@H](CCC(N)=O)NC(=O)[C@H](Cc1ccccc1)n1ccc(C)c(NC(=O)c2cc(C)on2)c1=O [Compound 18, trans-(2′S,4S)-6-Carbamoyl-4-(2′-{4″-methyl-3″-[(5′″-methylisoxazole-3′″-carbonyl)amino]-2″-oxo-2″H-pyridin-1″-yl}-3′-phenylpropionylamino)hex-2-enoic Acid Ethyl Ester]	116000	125	> 10000	–
CCOC(=O)/C=C/[C@H](C[C@@H]1CCNC1=O)NC(=O)[C@H](Cc1ccccc1)n1cccc(NC(=O)OCc2ccccc2)c1=O [Compound 19, trans-(2′S,3′″S,4S)-4-[2′-(3″-Benzyloxy-carbonylamino-2″-oxo-2″H-pyridin-1″-yl)-3′-phenylpropionylamino]-5-(2′″-oxopyrrolidin-3′″-yl)pent-2-enoic Acid Ethyl Ester]	380000	–	> 10000	EC50 (HRV-14; Rhinovirus B, HRV14, H1-HeLa): 3 nM
